These results are taken from PubChem BioAssay (NCI).

Structures are written as SMILES. Several values for one entry are separate records, joined by “and”; a condition that tells them apart may be missing. Equal values may be shown once.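 These data come from cells grown in 96-well plates and exposed to compound for 48 hours at five concentrations. At the GI50, growth is halved. TGI denotes the concentration required for complete inhibition of growth.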

The subject of the assay is MDA-MB-468 breast. Briefly: growth of human tumour cells (NCI), 48 h.

Regarding `CCOC(=O)N1CCN(CCCCCOc2ccccc2C2CCCCC2)CC1`, the GI50 was 2410 nM and the TGI was 8.46 µM.

As for `CC(C)Oc1ccc(C(=O)Cn2ccnc2)cc1-n1c(CN2CCN(C(=O)COc3ccc(Cl)cc3)CC2)nc2ccccc2c1=O`, the GI50 was 9950 nM and the TGI was found to be 35.9 µM.

With `COc1ccc(Nc2nccc(N3CCN(c4c5ccc(Cl)cc5nc5ccc(OC)cc45)CC3)n2)cc1`, the GI50 is 2690 nM and the TGI is 23 µM.

Consider `Fc1ccc2nc(-c3cc(-c4ccc5c(c4)OCO5)n[nH]3)[nH]c2c1`, for which the GI50 is 3580 nM and the TGI is more than 80.8 µM.

`COc1ccc(F)c(F)c1C(=O)c1cnc(NC2CCN(S(C)(=O)=O)CC2)nc1N`: the GI50 is 1370 nM and 687 nM; the TGI is 3.54 µM and 2.7 µM.

In the case of `COc1ccc(-c2cnoc2-c2cc(OC)c3c(c2)OCCO3)cc1`, the GI50 is 29.6 nM and the TGI is 1.03 µM.

As for `CN(C)S(=O)(=O)c1oc(-c2ccccc2)nc1C#N`, the GI50 is 12300 nM and the TGI worked out at 32.9 µM.

For `O=C(/C=C/c1cccc(O)c1)c1cccc(-n2cc(-c3ccc4ccccc4c3)[nH]c2=O)c1`, the GI50 is 2860 nM and the TGI turned out to be 12.8 µM.

On to `COc1ccc(-n2nc(C)c3c(Nc4ccc(NC(=O)Nc5ccc(Cl)c(C(F)(F)F)c5)cc4)ncnc32)cc1`, for which the GI50 was 1880 nM and the TGI was 4.62 µM.

In the case of `CCOc1ccc(Nc2c3ccccc3nc3ccccc23)cc1`, the GI50 is 258 nM and 325 nM; the TGI was 0.987 µM and 2.32 µM.

Turning to `COc1cccc2c(=O)c3c(sc12)c(NCCCNCCO)nc1ccccc13`, the GI50 was 1530 nM and the TGI stood at 3.13 µM.

As to `O=C(c1cccs1)C1NO[N+]([O-])=C1c1cccs1` (stereo not given), the GI50 was 1690 nM and the TGI amounted to 3.38 µM.

Regarding `CC(=Nc1ccc(S(N)(=O)=O)cc1)c1c(O)[nH]c2ccccc12`, the GI50 is more than 25000 nM and the TGI is more than 25 µM.

`CCN(CC)CCOc1ccc(C(=C(C)c2ccc(OC)cc2)c2ccc(OCCN(CC)CC)cc2)cc1`: the GI50 is 830 nM and the TGI is 1.86 µM.

With `Cc1ccc(-n2nc(C(C)(C)C)cc2NC(=O)NCc2cc(F)ccc2Oc2ccc3c(cnn3CCO)c2)cc1`, the GI50 is 6550 nM and 3580 nM; the TGI was more than 65.9 µM.

`COc1ccc(C2=C(N3CCc4ccccc43)C(=O)NC2=O)cc1`: the GI50 is 18000 nM and the TGI was more than 25 µM.

`COc1ccc(C(=O)c2nc3ccccc3n2CC(=O)c2ccc(Cl)cc2)cc1`: the GI50 was 2080 nM and the TGI is 11.5 µM.

In the case of `Clc1ccc2c(c1)N(c1ncnc3ccc(-c4cnc5[nH]ncc5c4)cc13)CC2`, the GI50 is 217 nM and the TGI came to 1.47 µM.

In the case of `c1ccc(-c2nc(N3CCCNCC3)c3nc(-c4ccccc4)oc3n2)cc1`, the GI50 was 1720 nM and the TGI is 3.37 µM.

Consider `Nn1c(=O)n(-c2cccc(C(F)(F)F)c2)c(=O)c2cc(-c3ccc(F)cc3F)ccc21`, for which the GI50 is 1990 nM and the TGI was found to be 6.21 µM.

As for `CC(C)(C)c1ccc(C(=O)Nc2sc3c(c2C(N)=O)CCC(O)C3)cc1` (stereo not given), the GI50 is 3010 nM and the TGI stood at 12.6 µM.

On to `CCCCCCCCCCCCCC[n+]1cccc(C(N)=O)c1`, for which the GI50 was 567 nM and the TGI stood at 2.56 µM.

Regarding `O=C1/C(=C/c2ccc([N+](=O)[O-])cc2)COc2ccc(O)cc21`, the GI50 was 2230 nM and the TGI turned out to be 7.6 µM.

With `COc1cccc(COc2cc(-n3cnc4ccccc43)sc2C(N)=O)c1`, the GI50 is 717 nM and the TGI worked out at 6.17 µM.

Consider `CC(C)[O-].CC(C)[O-].CN(CCN(C)Cc1cc(F)cc(F)c1[O-])Cc1cc(F)cc(F)c1[O-].[Ti+4]`, for which the GI50 was 542 nM and the TGI came out at 2.88 µM.

With `Nc1cc(-c2ccc(Cl)cc2)nn1-c1nnc(/C=C/c2ccco2)c(=O)[nH]1`, the GI50 was 3080 nM and the TGI is 22.2 µM.

Regarding `CCn1c(-c2nonc2N)nc2ccncc21`, the GI50 was more than 25000 nM and the TGI was more than 25 µM.

For the compound `OCc1ccc(N2CCOCC2)cc1Cl`, the GI50 is 732 nM and the TGI turned out to be 3.1 µM.

In the case of `[2H]c1nc(=Nc2cc(NC(=O)C=C)c(N(C)CCN(C)C)cc2OC)[nH]c(-c2cn(C([2H])([2H])[2H])c3ccccc23)c1[2H]`, the GI50 was 28.8 nM and the TGI came to 0.957 µM.

Turning to `CCN(CC)c1ccc(/C=C/C2=[N+](C)c3ccccc3C2(C)C)c(C)c1`, the GI50 was less than 19 nM and the TGI worked out at 0.181 µM.

`COc1cc2nc(-c3ccc(C(F)(F)F)cc3)cc(OCCCN3CCCC3)c2cc1OC`: the GI50 was 1090 nM and the TGI was 3.72 µM.

`CCNCCNc1cc(-c2ccc(C#N)cc2)c(C#N)c2nc3ccccc3n12`: the GI50 was 1790 nM and the TGI came to 4.15 µM.

In the case of `O=[N+]([O-])c1ccc(-c2cc3c(Nc4ccc(Cl)c(C(F)(F)F)c4)ncnc3s2)cc1`, the GI50 is 1640 nM and the TGI came out at 6.03 µM.

On to `Clc1nncc2sc(-c3ccccc3)nc12`, for which the GI50 was 14400 nM and the TGI is 69.5 µM.

As for `c1cnn2ncc(-c3ccnc(Nc4ccc5c(c4)OCCO5)n3)c2c1`, the GI50 is 59.4 nM and the TGI is 0.18 µM.
